We go through 3 compounds from patent US20050222134A1, “Crystalline forms of 5, 11-dihydro-11-ethyl-5-methyl-8-{2-{(1-oxido-4-quinolinyl)oxy}ethyl}-6H-dipyrido[3,2-b:2',3'-e] [1,4]diazepin-6-one” (Boehringer Ingelheim International GmbH, priority 2004, published 2005).

Series [1] in a line: Solubility experiments used to determine the phase diagram of the crystalline forms. The series is classed as physicochemical. The settings on record: 25° C.; for water content of ethanol solution in contact with which the form is thermodynamically favored over the other forms: ethanol solutions saturated with the compound, compared with the dihydrate, anhydrous Form I and Form III. How it is done:
Solubility experiments were used to determine the unique phase diagram shown in FIG. 5 for the various forms of 5,11-dihydro-11-ethyl-5-methyl-8-{2-{(1-oxido-4-quinolinyl)oxy}ethyl}-6H-dipyrido[3,2-b:2′,3′-e][1,4]diazepin-6-one. […] Additionally, anhydrous Form III is thermodynamically favored over the dihydrate and anhydrous Form I at 25° C. when in contact with ethanol solutions containing<˜2.7±0.5 wt % water.

The nature of series [2]: Phase stability of crystalline forms at ambient / storage conditions. The series is classed as physicochemical. An excerpt:
A first aspect of the present invention comprises the discovery of a dihydrate crystalline form of 5,11-dihydro-11-ethyl-5-methyl-8-{2-{(1-oxido-4-quinolinyl)oxy}ethyl}-6H-dipyrido[3,2-b:2′,3′-e][1,4]diazepin-6-one. […] The invention also comprises methods for making this dihydrate crystalline form.
(§1) We have further discovered that under proper conditions several anhydrous polymorphs of 5,11-dihydro-11-ethyl-5-methyl-8-{2-{(1-oxido-4-quinolinyl)oxy} ethyl}-6H-dipyrido[3,2-b:2′,3′-e][1,4]diazepin-6-one may be formed. […] Thus, the invention further includes anhydrous Form III of 5,11-dihydro-11-ethyl-5-methyl-8-{2-{(1-oxido-4-quinolinyl)oxy}ethyl}-6H-dipyrido[3,2-b:2′,3′-e][1,4]diazepin-6-one and methods for its manufacture.

Series [3] can be described thus: Biological testing of plasma levels of crystalline forms. The format is in vivo. The settings on record: compared with other crystalline forms of the drug.
Description: as §1

As usually defined, the melting point is the temperature of the solid-liquid transition. In turn, `CCN1c2ncc(CCOc3cc[n+]([O-])c4ccccc34)cc2C(=O)N(C)c2cccnc21` (hydrate or solvate) [dihydrate, 5,11-dihydro-11-ethyl-5-methyl-8-{2-{(1-oxido-4-quinolinyl)oxy}ethyl}-6H-dipyrido[3,2-b:2′,3′-e][1,4]diazepin-6-one dihydrate] came in with a melting point of 199 °C.

As to `CCN1c2ncc(CCOc3cc[n+]([O-])c4ccccc34)cc2C(=O)N(C)c2cccnc21` [anhydrous Form III, 5,11-dihydro-11-ethyl-5-methyl-8-{2-{(1-oxido-4-quinolinyl)oxy}ethyl}-6H-dipyrido[3,2-b:2′,3′-e][1,4]diazepin-6-one Anhydrous Form III], the melting point amounted to 198.2 °C. For the same compound, in series [1], the “thermodynamic preference between crystalline forms (phase diagram)” value is given as “thermodynamically preferred over anhydrous Form I” and the “water content of ethanol solution in contact with which the form is thermodynamically favored over the other forms” value is listed as under 2.7±0.5 wt % water. Further, the phase stability entry in series [2] (some tested ambient conditions) is listed as “demonstrated phase stability”. Also, the plasma levels result in series [3] is “higher plasma levels than are attainable using other crystalline forms”.

As for `CCN1c2ncc(CCOc3cc[n+]([O-])c4ccccc34)cc2C(=O)N(C)c2cccnc21` [dihydrate, 5,11-dihydro-11-ethyl-5-methyl-8-{2-{(1-oxido-4-quinolinyl)oxy}ethyl}-6H-dipyrido[3,2-b:2′,3′-e][1,4]diazepin-6-one dihydrate], the “water content of ethanol solution in contact with which the form is thermodynamically favored over the other forms” value in series [1] (dihydrate) is on record as over 2.7 wt % water. Also, the “thermodynamic or kinetic preference on storage” value in series [2] (temperatures and humidities most likely encountered on storage of drug substance or drug product, compared with the trihydrate) is reported as “thermodynamically or kinetically favored”.
